In paper PMC12040169 (PLOS Biology, 2025):

Experiment: in vitro
Conditions: human, hela cells, % viability

Row | Structure (SMILES) | viability at 28.5 h, 10 µM [%]
1 | CC(=O)N1CCCc2cc(C(O)CN3CCCC(C)(C)C3)ccc21 (centres unmarked) [CBK282143] | 94.3
2 | COc1ccc(C(=O)N2CCC3(CCN(Cc4ccc(OC(F)(F)F)cc4)C3)C2)cc1OC (centres unmarked) [CBK132148] | 89
3 | CC(C)(C)c1cc(C[C@H]2CNCC[C@H]2CC(=O)N2CCN(c3ccc(F)cc3)CC2)no1 [CBK288800] | 94.8
4 | O/N=C1/CCCCCC1NO (centres unmarked) [CBK264368A] | 107
5 | CC(Sc1nc(N(C)C)nc(N2CCOCC2)n1)C(=O)Nc1ccc(Cl)c(Cl)c1 (centres unmarked) [CBK269229] | 110
6 | CCN1CCC(NC(=O)CSc2nc3ccccc3n2CC(C)C)CC1 [CBK304995] | 106
7 | COc1cc(NC(=O)C2CCN(S(=O)(=O)c3cccs3)CC2)c(Cl)cc1C(=O)O [CBK297085] | 99.7
8 | COC(=O)c1ccc(Cl)c(NC(=O)CSc2nnc(-c3ccncc3)[nH]2)c1 [CBK268702] | 105
9 | O=C(c1cccs1)N1C[C@H](c2ccc(F)cc2)[C@H]2CN(Cc3ccccc3)CC[C@H]21 [CBK285544] | 91.8
10 | Cc1cccc(-c2cc(C(=O)O)c(C)o2)c1 [CBK045855] | 87.7
11 | Cc1cccc(-c2ncc(NC(=O)C3CC3)nc2-c2cccnc2)c1 [CBK037134] | 98.9
12 | Cc1ccc(SCC(=O)NCc2nc(-c3ccccc3)no2)cc1 [CBK269474] | 102
13 | COc1ccc(C=Cc2cc(C(=O)O)c3ccccc3n2)cc1OC(F)F [CBK296953] | 85.9
14 | CN(C)CCN(C)Cc1ccc2c(c1)Cc1ccccc1-2 [CBK261856] | 93.3
15 | O=C(COc1ccccc1)NCC1(c2ccccc2)CCOCC1 [CBK067407] | 103
16 | COc1ccccc1CC(=O)N1CC[C@@H]2NC(=O)[C@H]3C[C@H](NC(=O)C4CC4)CN3C(=O)[C@H]21 [CBK289267] | 103
17 | CCn1c(=O)n(CC(=O)N2CCC(C)CC2)c2cccnc21 [CBK283895] | 95.9
18 | C=C(C)Cn1c(SCC(C)C)nnc1-c1ccccc1OC [CBK200071] | 91.5

Row | Structure (SMILES) | viability at 28.5 h, 10 µM [%]
19 | Nc1ccc(-c2cn3ccnc3c(NCC3CC3)n2)cc1 [CBK066677] | 101
20 | Cn1ccc(N2CCCC(NC(=O)c3scnc3C(C)(C)C)C2=O)n1 (centres unmarked) [CBK305453] | 94.9
21 | S=C(NCCc1ccccn1)NCCN1CCOCC1 [CBK268296] | 101
22 | O=C(CN1CCCC2(CCN(C(=O)Cc3c[nH]c4ccccc34)C2)C1)Nc1ccc(F)c(Cl)c1 (centres unmarked) [CBK132047] | 108
23 | COc1ccc(CC(=O)NCC(=O)N2CCC3(CC2)NCCc2nc[nH]c23)cc1 [CBK287997] | 110
24 | O=C(O)CN(Cc1ccccc1)Cc1ccccc1 [CBK260903] | 104
25 | FC(F)(F)c1cccc(CSc2nccnc2N2CCCC2)c1 [CBK107178] | 94.7
26 | c1ccc(Cn2c(CN3CCCC3)nc3ccccc32)cc1 [CBK269612] | 87.7
27 | O=C(O)Cc1ccc(NC(=O)C2Cc3ccccc3C(=O)O2)cc1 (centres unmarked) [CBK269406] | 85.1
28 | C=C(C)Cn1c(SCC(C)C)nnc1-c1ccccc1OC(F)(F)F [CBK200080] | 97.7
29 | O=C(Cn1c(=O)n(Cc2cccnc2)c(=O)c2ncccc21)NC1CCCC1 [CBK287666] | 103
30 | COCCCn1c(N)c(C(=O)NCC(C)C)c2nc3ccccc3nc21 [CBK126495] | 84.9
31 | O=C(NCc1ccncc1)c1csc2c(C(F)(F)F)cc(N3CCN(Cc4ccccc4)CC3)nc12 [CBK034294T] | 98.6
32 | Cc1cc(C(F)(F)F)nc(CCNC(=O)N(Cc2ccsc2)C2CC2)n1 [CBK307468] | 107
33 | O=C(O)c1csc(-c2ccc(Cl)cc2Cl)n1 [CBK067777] | 90
34 | Cc1cnc(CNC(=O)N2CCc3ccccc3C2)cn1 [CBK155166] | 97.3
35 | COc1ccc(CCN2C(=O)CC(Nc3ccc(N4CCOCC4)cc3)C2=O)cc1OC (centres unmarked) [CBK266322] | 97.7
